According to ChEMBL document CHEMBL1201862, “PubChem BioAssay data set” (2004):
Active and inactive are the calls of the source.

How the values were obtained:
Aminopeptidase N = target: T1, Aminopeptidase N (Plasmodium falciparum FcB1/Columbia, UniProt O96935); assay: malaria alanyl aminopeptidase activity blockers – biochemical, fluorogenic H-Leu-NHMec substrate, 1536-well (AID 1445); parameters: species or system Plasmodium falciparum 3D7, 3D7
T1 sequence (O96935 whole entry): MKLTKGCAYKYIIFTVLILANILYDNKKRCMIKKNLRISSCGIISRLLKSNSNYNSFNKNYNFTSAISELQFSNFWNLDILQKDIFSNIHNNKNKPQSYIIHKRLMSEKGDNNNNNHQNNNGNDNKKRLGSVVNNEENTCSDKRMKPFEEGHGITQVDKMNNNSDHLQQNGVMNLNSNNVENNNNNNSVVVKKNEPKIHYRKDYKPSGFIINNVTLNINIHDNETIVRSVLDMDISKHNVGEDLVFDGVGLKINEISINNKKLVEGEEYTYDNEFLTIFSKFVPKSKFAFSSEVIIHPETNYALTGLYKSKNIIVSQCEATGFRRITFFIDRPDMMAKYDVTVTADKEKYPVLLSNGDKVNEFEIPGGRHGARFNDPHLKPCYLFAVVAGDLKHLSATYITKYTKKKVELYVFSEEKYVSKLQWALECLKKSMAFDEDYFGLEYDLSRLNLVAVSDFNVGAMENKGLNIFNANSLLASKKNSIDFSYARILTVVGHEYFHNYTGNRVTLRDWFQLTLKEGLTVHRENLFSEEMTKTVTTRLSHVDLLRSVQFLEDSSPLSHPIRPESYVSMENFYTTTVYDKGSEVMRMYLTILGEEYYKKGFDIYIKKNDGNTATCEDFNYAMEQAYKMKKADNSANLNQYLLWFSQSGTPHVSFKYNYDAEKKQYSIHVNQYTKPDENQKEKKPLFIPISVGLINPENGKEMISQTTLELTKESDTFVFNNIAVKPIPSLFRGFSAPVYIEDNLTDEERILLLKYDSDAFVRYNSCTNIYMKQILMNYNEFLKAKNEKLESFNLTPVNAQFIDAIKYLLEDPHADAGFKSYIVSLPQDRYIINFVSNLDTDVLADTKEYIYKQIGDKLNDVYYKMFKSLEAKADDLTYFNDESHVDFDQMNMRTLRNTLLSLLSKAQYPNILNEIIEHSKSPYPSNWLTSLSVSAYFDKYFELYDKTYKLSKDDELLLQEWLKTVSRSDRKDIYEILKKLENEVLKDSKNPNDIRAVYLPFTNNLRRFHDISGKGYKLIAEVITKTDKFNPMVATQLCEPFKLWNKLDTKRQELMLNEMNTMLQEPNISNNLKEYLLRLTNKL

[1] = target: T2, Acyl-homoserine lactone acylase PvdQ (Pseudomonas aeruginosa (strain LESB58), UniProt Q9I194); assay: PvdQ acylase enzyme activity blockers – biochemical, fluorescence, plate reader and imaging, cherry-picks, dose response (AID 493231)
T2 sequence (Q9I194 whole entry): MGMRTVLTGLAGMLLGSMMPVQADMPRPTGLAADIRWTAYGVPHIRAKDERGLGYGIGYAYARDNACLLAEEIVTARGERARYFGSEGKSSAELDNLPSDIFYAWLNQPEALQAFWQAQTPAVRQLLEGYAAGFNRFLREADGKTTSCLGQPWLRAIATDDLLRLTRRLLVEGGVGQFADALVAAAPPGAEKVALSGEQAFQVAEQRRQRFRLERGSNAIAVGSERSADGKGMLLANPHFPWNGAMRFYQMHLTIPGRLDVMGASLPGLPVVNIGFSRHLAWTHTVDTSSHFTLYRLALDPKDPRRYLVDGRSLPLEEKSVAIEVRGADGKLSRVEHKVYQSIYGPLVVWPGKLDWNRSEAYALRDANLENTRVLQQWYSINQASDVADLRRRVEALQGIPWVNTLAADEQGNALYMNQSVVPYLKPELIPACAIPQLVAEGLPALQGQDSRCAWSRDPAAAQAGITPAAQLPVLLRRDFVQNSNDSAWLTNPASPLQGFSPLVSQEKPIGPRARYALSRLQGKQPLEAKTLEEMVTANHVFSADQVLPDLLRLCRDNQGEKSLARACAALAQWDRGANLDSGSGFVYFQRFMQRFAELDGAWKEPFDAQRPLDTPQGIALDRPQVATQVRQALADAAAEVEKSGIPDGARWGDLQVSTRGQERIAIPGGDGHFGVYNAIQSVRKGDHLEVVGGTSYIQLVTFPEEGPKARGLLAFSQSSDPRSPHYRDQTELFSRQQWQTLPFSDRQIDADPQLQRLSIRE

[2] = decrease of insulin promoter-GFP reporter – imaging, high-content screening, mouse beta cells (AID 1628); format: functional; conditions: MIN6
[3] = MIN6 cell viability loss – mouse insulinoma, cytotoxicity control, dose response (AID 2122); format: functional;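 further: confirmatory high-throughput counterscreen run to flag cytotoxic compounds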
ORF 73 = target: T3, ORF 73 (Human herpesvirus 8, UniProt O40947); assay: KSHV LANA DNA-binding disruption – biochemical, fluorescence polarization, cherry-picked samples, dose response (AID 504725); parameters: species or system Human gammaherpesvirus 8;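 further: fluorescence polarization of a labeled DNA duplex reporting LANA DNA binding; potency is for inhibitors that block LANA binding to the DNA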
T3 sequence (O40947 whole entry): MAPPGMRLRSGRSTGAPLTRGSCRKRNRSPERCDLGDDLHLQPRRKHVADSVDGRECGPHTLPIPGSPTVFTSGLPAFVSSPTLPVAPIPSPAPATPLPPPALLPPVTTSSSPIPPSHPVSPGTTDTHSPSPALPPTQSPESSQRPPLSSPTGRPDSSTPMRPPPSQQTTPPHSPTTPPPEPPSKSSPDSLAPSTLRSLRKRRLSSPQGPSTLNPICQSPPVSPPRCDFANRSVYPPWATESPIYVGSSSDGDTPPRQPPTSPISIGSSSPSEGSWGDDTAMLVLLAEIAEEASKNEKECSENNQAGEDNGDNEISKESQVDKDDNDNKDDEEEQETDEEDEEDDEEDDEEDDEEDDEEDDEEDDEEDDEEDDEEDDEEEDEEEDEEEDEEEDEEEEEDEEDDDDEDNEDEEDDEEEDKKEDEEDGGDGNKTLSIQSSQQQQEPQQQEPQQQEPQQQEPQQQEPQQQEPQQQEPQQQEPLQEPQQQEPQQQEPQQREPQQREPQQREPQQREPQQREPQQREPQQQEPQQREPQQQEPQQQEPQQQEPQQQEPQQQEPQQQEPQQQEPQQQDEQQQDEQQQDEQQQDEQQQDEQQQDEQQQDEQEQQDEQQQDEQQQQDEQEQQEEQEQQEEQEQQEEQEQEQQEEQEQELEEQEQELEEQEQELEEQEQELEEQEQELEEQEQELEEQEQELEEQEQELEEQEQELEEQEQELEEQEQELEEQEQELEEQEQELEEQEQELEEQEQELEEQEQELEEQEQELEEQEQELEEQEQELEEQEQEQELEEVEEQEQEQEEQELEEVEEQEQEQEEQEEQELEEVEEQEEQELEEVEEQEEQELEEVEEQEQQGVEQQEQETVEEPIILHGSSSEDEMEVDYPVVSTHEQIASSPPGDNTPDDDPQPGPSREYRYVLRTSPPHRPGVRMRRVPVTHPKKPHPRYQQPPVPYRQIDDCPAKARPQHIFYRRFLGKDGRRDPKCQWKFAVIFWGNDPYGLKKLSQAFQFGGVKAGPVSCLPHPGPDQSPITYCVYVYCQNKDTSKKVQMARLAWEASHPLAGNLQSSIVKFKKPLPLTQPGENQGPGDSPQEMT

[4] = A Cell Based Secondary Assay To Explore Cytotoxicity of Compounds that Sensitize Mycobacterium Tuberculosis to Beta-Lactam Antibiotics.; format: functional
[5] = Trypanosoma cruzi growth suppression in host cells – NIH3T3 host cells, beta-gal luminescence, confirmation (AID 2044); format: functional, cell-based;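 further: intracellular parasites grown in NIH/3T3 mouse fibroblasts as host cells; luminescent beta-galactosidase reporter signal from transgenic T. cruzi replicating inside host cells; inhibitors lower the luminescence signal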
[6] = NIH3T3 cell viability loss – ATP luminescence, mouse fibroblasts, counter-screen, dose response (AID 2010); format: functional, cell-based;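 further: cells exposed to compound for about 90 hours before reading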
HEK293 = assay: EBV LMP1 TES2 canonical NF-kB signalling blockers – cell-based, HEK293, luciferase, cherry-pick, dose response (AID 588343); format: functional; conditions: Homo sapiens
Leucine aminopeptidase = target: T4, Leucine aminopeptidase (Plasmodium falciparum 3D7, UniProt Q8IL11); assay: P. falciparum M17LAP inhibitors, primary screen, biochemical, fluorogenic H-Leu-NHMec substrate, 1536-well (AID 1619); format: functional
T4 sequence (Q8IL11 whole entry): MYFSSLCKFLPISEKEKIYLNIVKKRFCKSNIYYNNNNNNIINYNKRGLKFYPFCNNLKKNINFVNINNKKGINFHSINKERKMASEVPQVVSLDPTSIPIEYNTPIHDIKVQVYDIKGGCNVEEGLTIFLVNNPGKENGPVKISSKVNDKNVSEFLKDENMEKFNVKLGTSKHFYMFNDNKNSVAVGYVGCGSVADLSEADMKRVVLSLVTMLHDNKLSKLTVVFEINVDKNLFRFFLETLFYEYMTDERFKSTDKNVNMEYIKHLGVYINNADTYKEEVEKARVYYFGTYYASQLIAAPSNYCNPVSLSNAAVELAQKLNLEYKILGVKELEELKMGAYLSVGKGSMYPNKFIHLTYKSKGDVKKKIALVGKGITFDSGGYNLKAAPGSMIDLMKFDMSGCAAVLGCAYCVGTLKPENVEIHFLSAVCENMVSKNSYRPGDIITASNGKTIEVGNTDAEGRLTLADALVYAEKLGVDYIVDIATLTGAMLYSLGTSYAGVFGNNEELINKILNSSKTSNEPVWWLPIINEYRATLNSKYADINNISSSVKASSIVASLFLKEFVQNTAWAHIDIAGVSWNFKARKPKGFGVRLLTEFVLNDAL

[7] = target: T5, Rac GTPase-activating protein 1 (Homo sapiens, UniProt Q9H0H5); assay: blockers of MgcRacGAP-driven Rac1 GTP hydrolysis – biochemical, ADP Hunter fluorescence, primary and confirmatory, confirmation (AID 624330); format: functional
T5 sequence (Q9H0H5 whole entry): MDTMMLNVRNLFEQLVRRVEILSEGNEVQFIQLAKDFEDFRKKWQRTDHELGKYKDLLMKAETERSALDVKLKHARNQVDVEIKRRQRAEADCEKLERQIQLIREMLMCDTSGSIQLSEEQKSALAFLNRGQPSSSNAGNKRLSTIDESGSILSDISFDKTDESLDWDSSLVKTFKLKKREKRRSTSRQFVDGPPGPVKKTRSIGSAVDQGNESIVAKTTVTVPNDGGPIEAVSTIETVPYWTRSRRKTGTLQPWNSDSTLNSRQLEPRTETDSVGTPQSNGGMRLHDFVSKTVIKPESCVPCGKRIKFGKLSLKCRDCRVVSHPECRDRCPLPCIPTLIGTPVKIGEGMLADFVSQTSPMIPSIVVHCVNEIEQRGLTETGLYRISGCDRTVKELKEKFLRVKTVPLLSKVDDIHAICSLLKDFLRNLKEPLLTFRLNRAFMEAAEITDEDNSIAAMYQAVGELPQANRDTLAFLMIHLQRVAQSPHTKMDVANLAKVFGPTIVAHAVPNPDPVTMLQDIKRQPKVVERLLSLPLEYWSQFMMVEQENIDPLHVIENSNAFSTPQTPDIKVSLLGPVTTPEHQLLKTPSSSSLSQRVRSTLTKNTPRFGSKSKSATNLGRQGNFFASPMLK

Large T antigen = Large T antigen (Simian virus 40, UniProt P03070); format: functional, Betapolyomavirus macacae;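 further: Confirmatory-stage PubChem screen for compounds that inhibit SV40 T antigen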
Sequence of Large T antigen (P03070 whole entry): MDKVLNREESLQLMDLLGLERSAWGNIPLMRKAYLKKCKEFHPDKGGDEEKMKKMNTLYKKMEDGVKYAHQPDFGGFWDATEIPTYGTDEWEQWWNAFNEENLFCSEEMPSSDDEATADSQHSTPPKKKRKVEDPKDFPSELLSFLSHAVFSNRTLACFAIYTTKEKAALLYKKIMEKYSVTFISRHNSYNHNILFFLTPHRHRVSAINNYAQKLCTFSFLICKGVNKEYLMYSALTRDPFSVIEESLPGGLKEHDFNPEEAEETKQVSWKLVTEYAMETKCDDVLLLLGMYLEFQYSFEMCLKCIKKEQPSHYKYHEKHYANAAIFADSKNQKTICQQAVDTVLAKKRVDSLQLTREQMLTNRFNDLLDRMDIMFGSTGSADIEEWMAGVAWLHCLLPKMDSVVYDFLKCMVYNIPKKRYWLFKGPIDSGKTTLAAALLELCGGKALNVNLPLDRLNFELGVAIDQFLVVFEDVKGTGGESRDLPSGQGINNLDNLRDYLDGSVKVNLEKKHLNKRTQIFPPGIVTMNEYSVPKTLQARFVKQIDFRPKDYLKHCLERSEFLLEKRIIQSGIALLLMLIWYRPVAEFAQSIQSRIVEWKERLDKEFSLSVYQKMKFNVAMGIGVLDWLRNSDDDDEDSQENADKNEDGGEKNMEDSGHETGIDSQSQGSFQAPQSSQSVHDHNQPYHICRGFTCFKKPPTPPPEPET

CCOC(=O)N1CCN(C(=O)c2ccc3c(c2)sc2nc(-c4ccccc4)cn23)CC1
IC50 (Aminopeptidase N): 73.4 µM (active)

O=[N+]([O-])c1ccc(-c2cccnc2)cc1
AC50 [1]: 13.1 µM (active)

C/C(=N\Nc1cc(N2CCOCC2)nc(C)n1)c1cccc([N+](=O)[O-])c1
IC50 [2]: 1.98 µM (active)
IC50 [3]: 3.14 µM (active)

O=C(/C=C/c1ccc2c(c1)OCCO2)c1ccccc1
AC50 [1]: 29.3 µM (active)

COCCN(CCOC)Cc1c(O)ccc2c1O/C(=C\c1ccco1)C2=O
AC50 (ORF 73): 11.9 µM (active)

COCc1cc(O)n2ncc(-c3ccccc3)c2n1
CC50 [4]: > 40 µM (active)

Cc1ccc(NC(=O)Nc2cccs2)nc1
IC50 (Aminopeptidase N): 26.4 µM (active)

O=C(/C=C/c1cccc([N+](=O)[O-])c1)N1CCN(Cc2ccc3c(c2)OCO3)CC1
IC50 (Aminopeptidase N): 108 µM (active)

COc1ccc(NC(=S)N(CCCN2CCCC2)Cc2cccn2Cc2ccc(Cl)cc2)cc1Cl
IC50 [2]: 2.89 µM (active)
IC50 [3]: 3.27 µM (active)

CCOc1ccc(Nc2ncnc3ccc([N+](=O)[O-])cc23)cc1
AC50 [1]: 30.8 µM (active)
EC50 [5]: 2.22 µM (active)
EC50 [6]: > 60 µM (not active)
AC50 (HEK293): 8.95 µM (active)

Cn1nc(-c2ccc(OCC(=O)NCC3CCCO3)cc2)c2ccccc2c1=O (stereo not drawn)
CC50 [4]: > 40 µM (active)

COc1ccc(Cn2c(C)nc3c(c(=O)c4ccccc4n3C)c2=O)cc1
CC50 [4]: > 40 µM (active)

Cc1cccc(NC(S)=NC(C)(C)CC(C)(C)C)c1
IC50 [2]: 1.92 µM (active)
IC50 [3]: 1.87 µM (active)

C=CCOC(=O)c1ccc(-n2cnc(C)n2)nc1
AC50 [1]: 4.58 µM (active)

COc1ccc2c(c1)c(C(=O)N/N=C/c1ccc(O)c(O)c1)c(C)n2C
IC50 (Leucine aminopeptidase): 29.7 µM (active)
IC50 [7]: 23.5 µM (active)
IC50 (Large T antigen): 16.7 µM (active)
